Results: US8178540B2 (priority 2006, dated 2012)

Key:
Alternaria solani = assay: Use Example 2: early blight of tomato, greenhouse, spores in 2% biomalt; format: in vivo; conditions: 250 ppm; tomato plants sprayed 1 day before inoculation; assessed after 5 days; untreated plants 90% infected
Method: The next day, the treated plants were inoculated with a spore suspension of Alternaria solani which contained 0.17×10^6 spores/ml in a 2% aqueous biomalt solution. The test plants were then placed in a water vapor-saturated chamber at temperatures of from 20 to 22° C. After 5 days the disease on the untreated infected control plants had developed to such an extent that the infection of all plants could be determined visually in %.

Phytophthora infestans = format: in vivo; conditions: 250 ppm; tomato plants, sprayed 1 day before inoculation; after six days; untreated plants 90% infected
Sphaerotheca fuliginea = assay: Use Example 8: protective action on cucumber leaves; format: in vivo; conditions: 250 ppm (printed for RC 3 only); cucumber seedlings sprayed 1 day before inoculation; after seven days; untreated plants 90% infected
From the text: After inoculation, the trial plants were transferred to a green house.

[1] = system: tobacco budworm (Heliothis virescens); conditions: 2500 ppm; eggs sprayed, 6 days

`O=S(=O)(NCc1ccncc1)c1ccc(Oc2ccc(Cl)cc2)cc1` [RC 1] showed an infection (Alternaria solani) of 40%.

In the case of `O=S(=O)(NCc1ccncc1)c1ccc(-c2ccc(Cl)cc2)cc1` [RC 2], the “infection (% diseased leaf area)” value (Phytophthora infestans) is reported as 90%.

With `COc1nccc(CNS(=O)(=O)c2ccc(-c3ccc(Cl)cc3)cc2)n1` [Example 88] the “infection (% diseased leaf area)” value (Sphaerotheca fuliginea) was “no infection”.

`COc1cc(CNS(=O)(=O)c2ccc(-c3ccc(Cl)cc3)cc2)ccn1` [RC 3] was tested, and the “infection (% diseased leaf area)” value (Sphaerotheca fuliginea) was 90%.

For `O=S(=O)(NCc1ccncn1)c1ccc(Oc2ccc(Cl)cc2)cc1` [Example 199], the infection (Alternaria solani) was “less than or equal to 5%”.

In the case of `O=S(=O)(NCc1ccncn1)c1ccc(-c2ccc(Cl)cc2Cl)cc1` [Example 54], the mortality [1] is reported as “at least 75%”.
